We go through one compound from paper PMC10893492, “Anticancer Evaluation of Novel Benzofuran–Indole Hybrids as Epidermal Growth Factor Receptor Inhibitors against Non-Small-Cell Lung Cancer Cells” (Pharmaceuticals, 2024).

For the test, the target named is epidermal growth factor receptor (EGFR) (Homo sapiens, UniProt P00533). The test is described as follows: EGFR kinase assay kit (BPS Bioscience) with Kinase-Glo Max luminescence. The format is biochemical. (In Kinase-Glo more light means more ATP remaining.)
epidermal growth factor receptor (EGFR), sequence (P00533 25-1210): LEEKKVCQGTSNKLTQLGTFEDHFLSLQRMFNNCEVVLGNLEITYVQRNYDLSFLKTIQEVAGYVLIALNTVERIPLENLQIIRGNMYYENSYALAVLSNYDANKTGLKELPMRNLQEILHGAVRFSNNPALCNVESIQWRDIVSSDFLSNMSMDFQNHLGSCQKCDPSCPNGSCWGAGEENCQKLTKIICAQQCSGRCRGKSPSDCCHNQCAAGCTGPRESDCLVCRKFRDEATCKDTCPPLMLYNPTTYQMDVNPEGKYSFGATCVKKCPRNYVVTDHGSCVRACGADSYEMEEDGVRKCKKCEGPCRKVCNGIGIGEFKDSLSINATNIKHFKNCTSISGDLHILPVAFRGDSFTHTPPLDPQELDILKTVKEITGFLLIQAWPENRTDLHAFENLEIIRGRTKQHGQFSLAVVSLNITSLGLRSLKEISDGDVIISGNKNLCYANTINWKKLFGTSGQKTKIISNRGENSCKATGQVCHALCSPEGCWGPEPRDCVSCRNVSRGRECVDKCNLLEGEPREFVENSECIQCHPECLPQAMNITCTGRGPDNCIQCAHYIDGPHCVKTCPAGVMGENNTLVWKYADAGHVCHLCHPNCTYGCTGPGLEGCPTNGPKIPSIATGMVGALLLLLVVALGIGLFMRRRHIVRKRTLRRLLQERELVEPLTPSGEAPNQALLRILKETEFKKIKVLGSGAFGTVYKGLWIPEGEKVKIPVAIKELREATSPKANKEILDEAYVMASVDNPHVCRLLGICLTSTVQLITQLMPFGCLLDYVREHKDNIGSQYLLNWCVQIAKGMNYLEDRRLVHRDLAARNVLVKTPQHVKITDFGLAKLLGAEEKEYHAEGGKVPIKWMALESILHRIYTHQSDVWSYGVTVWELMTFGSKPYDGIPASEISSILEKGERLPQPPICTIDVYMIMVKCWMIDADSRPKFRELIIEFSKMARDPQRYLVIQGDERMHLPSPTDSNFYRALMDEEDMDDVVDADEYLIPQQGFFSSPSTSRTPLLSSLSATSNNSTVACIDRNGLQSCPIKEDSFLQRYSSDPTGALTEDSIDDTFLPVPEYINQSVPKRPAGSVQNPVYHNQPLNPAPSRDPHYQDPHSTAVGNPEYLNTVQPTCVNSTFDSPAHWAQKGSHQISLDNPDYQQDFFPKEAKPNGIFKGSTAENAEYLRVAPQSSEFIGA

Compound `COc1cc2oc(-c3ccccc3)c(-c3c[nH]c4ccc(Br)cc34)c2cc1OC` [8aa, 5-Bromo-3-(5,6-dimethoxy-2-phenylbenzofuran-3-yl)-1H-indole] displayed an IC50 of 440 ± 20 nM.

A word on the IC50: it is the concentration at which inhibition is half-maximal. Low values mean inhibition by little substance, high ones a need for much substance.
